Test results published in patent US20070149554A1, “Cancer chemotherapy” (Yung Shin Pharmaceutical Ind. Co., Ltd., priority 2005, published 2007).

Key:
A498 renal cancer cells = assay: A498 renal cancer xenograft tumor growth in athymic nude mice; format: in vivo; conditions: single agent; Compound 1 10 mg/kg/day oral in 0.5% CMC; paclitaxel or doxorubicin 20 mg/kg/week i.p.; nude mice with A498 tumors
Procedure: Athymic nude mice (BALB/c nu/nu female, 6-8 week old) were housed at 22° C. on a 12 h light/dark cycle. The mice were subcutaneously injected with A498 renal cancer cells (10^7 cell/mouse). After inoculation for 15 days, tumors were grown to a size of 100 to 150 mm^3. The mice were then randomly divided into six grounds (5 mice in each group). […] (paclitaxel and doxorubicin are commercial products). […] The tumors were carefully removed and weighed.

WEHI-3 leukemia cells = assay: Survival, organ and body weight, spleen histopathology of BALB/c mice bearing WEHI-3 leukemia cells; format: in vivo; conditions: for mean survival time of WEHI-3/BALB/c mice: 30 mg/kg/mouse i.p., untreated 30 days, text of b65; for Survival days Range / Survival days Mean ± S.D.: 30 mg/kg/mouse, QD*7 (once two days by seven times), 10 mice; for Survival days Range: untreated 20-30; for Survival days Mean ± S.D.: untreated 26.0 ± 3.9; for infiltration of immature myeloblastic cells into splenic red pulp: H-E stain of spleen section, FIG. 2; for body weight loss in leukemia mice: within one month of experiment, data not shown
Procedure: Murine myelomonocytic leukemia cell line WEHI-3 was obtained from the Food Industry Research and Development Institute (Hsinchu, Taiwan). […] This cell line can induce leukemia in syngenic BALB/c mice for evaluating anti-leukemia effects of drugs.
Specifically, BLAB/c mice were divided into 4 groups. Group I was injected i.p. with WEHI-3 only. […] Control mice and all groups of mice were treated for 2 weeks before the animals were weighed and the blood was draw and sacrificed for further experiments.
The spleen and liver tissues were isolated from individual animals, photographed, weighed, and histopathologically examined.

WEHI-3 cells [1] = assay: Cell cycle analysis of WEHI-3 cells in vitro; format: cell-based, murine; conditions: compound 1 5 μM, ATRA 1 μM, 24 h; data not shown
WEHI-3 cells [2] = assay: NBT reduction (differentiation) in WEHI-3 cells; format: cell-based, murine; conditions: 24 h; for percentages of NBT positive cells: FIG. 3B
WEHI-3 cells [3] = assay: TUNEL/DAPI staining (apoptosis) in WEHI-3 cells; format: cell-based, murine; conditions: for TUNEL positive cells: 24 h, FIG. 3B; for nuclear shrinkage, chromatin condensation and DNA fragmentation (TUNEL/DAPI): 24 h culture, FIG. 3A
platelet = conditions: cited from earlier work
[4] = system: human hepatocellular carcinoma HA22T cells; conditions: cited from earlier work
Hep3B cells = conditions: cited from earlier work
caspase-3 = assay: Caspase-3 activity assay in WEHI-3 cells; conditions: 12, 18 and 24 h treatment; 50 μM of compound 1; FIG. 4B
Procedure: (§1) The results were expressed as mean±S.D. and the difference between the groups was tested by one way ANOVA.

WEHI-3 cells [5] = assay: DNA fragmentation by agarose gel electrophoresis in WEHI-3 cells; conditions: compound 1 at 5 μM, 12 and 24 h; FIG. 4A
Procedure: as §1

| SMILES | tumor size compared with control group (A498 renal cancer cells) | mean survival time of WEHI-3/BALB/c mice (WEHI-3 leukemia cells) [days] | Survival days Range (WEHI-3 leukemia cells) [days] | Survival days Mean ± S.D. (WEHI-3 leukemia cells) [days] | infiltration of immature myeloblastic cells into splenic red pulp (WEHI-3 leukemia cells) | body weight loss in leukemia mice (WEHI-3 leukemia cells) | sub-G1 population (WEHI-3 cells [1]) | percentages of NBT positive cells (WEHI-3 cells [2]) [%] | TUNEL positive cells (WEHI-3 cells [3]) [%] | nuclear shrinkage, chromatin condensation and DNA fragmentation (TUNEL/DAPI) (WEHI-3 cells [3]) | antiplatelet activity (platelet) | cell cycle arrest [4] | hypoxia induction of erythropoietin and vascular endothelial growth factor (Hep3B cells) | caspase-3 activity (caspase-3) | DNA fragmentation (agarose gel) (WEHI-3 cells [5]) | NBT-reduction compared with control cells (WEHI-3 cells [2]) |
| --- | --- | --- | --- | --- | --- | --- | --- | --- | --- | --- | --- | --- | --- | --- | --- | --- |
| CC(=O)O[C@H]1C(=O)[C@@]2(C)[C@H]([C@H](OC(=O)c3ccccc3)[C@]3(O)C[C@H](OC(=O)[C@H](O)[C@@H](NC(=O)c4ccccc4)c4ccccc4)C(C)=C1C3(C)C)[C@]1(OC(C)=O)CO[C@@H]1C[C@@H]2O [paclitaxel, Paclitaxel] | smaller tumors than those in the control group | – | – | – | – | – | – | – | – | – | – | – | – | – | – | – |
| OCc1ccc(-c2nn(Cc3ccccc3)c3ccccc23)o1 [Compound 1, 1-benzyl-3-(5′-hydroxymethyl-2′-furyl)indazole] | smaller tumors than those in the control group | 40 | 22 to 40 | 32.3 ± 4.9 | reduced | improved the body weight loss | increased sub-GI population | 3.56 | 40.33 | exhibited nuclear shrinkage, chromatin condensation and DNA fragmentation | novel antiplatelet agent | arresting cell cycles at the Go/G1 stage | inhibits hypoxia induction of erythropoietin and vascular endothelial growth factor | rapid induction of caspase-3 activity | fragmented into a ladder of 180-200 base pairs | – |
| CC1=C(/C=C/C(C)=C/C=C/C(C)=C/C(=O)O)C(C)(C)CCC1 [ATRA, all trans retinoic acid, reference compound] | – | 42 | 26 to 42 | 33.9 ± 5.0 | reduced | improved the body weight loss | – | 33.42 | 5.45 | not observed | – | – | – | – | – | significant increases |
| COc1cccc2c1C(=O)c1c(O)c3c(c(O)c1C2=O)C[C@@](O)(C(=O)CO)C[C@@H]3O[C@H]1C[C@H](N)[C@H](O)[C@H](C)O1 [doxorubicin, Doxorubicin] | smaller tumors than those in the control group | – | – | – | – | – | – | – | – | – | – | – | – | – | – | – |
